One compound from patent publication US20130183719A1, “METHOD FOR PRODUCING VIRUS VECTOR” (priority 2010, published 2013) can be followed below.

The structures appear in SMILES notation.

Experiment [1] relates to PBMC. The experiment can be described thus: Gene transduction of PBMC with MS-MA24-siTCR retrovirus supernatants from producer cells cultured in the test media (CD8/MAGE-A4 tetramer flow cytometry). The format is cell-based, human. Conditions: Example 9; FIG. 8. An excerpt: A HEK 293 T cell (ATCC CRL-11268) was transfected with the codon modified TCR and siRNA-coexpression retroviral vector (MS-MA24-siTCR) described in WO 2008/153029 using Retrovirus Packaging Kit Eco (manufactured by TAKARA BIO INC.) according to the manufacturer's protocol to obtain an ecotropic retrovirus supernatant. The virus supernatant was filtered with a 0.45 μm filter (Milex HV, manufactured by Millipore). A PG13 cell was infected with the filtrate by a method using polybrene, and then cloned by a limiting dilution method.
(§1) A working cell bank (WCB) prepared from the cloned cell obtained in Example 7-1 was thawed in a water bath at 37° C. The cell solution thus thawed was put into a 15 mL centrifuging tube. After addition of a complete medium [a DMEM medium (manufactured by Gibco) containing 10% fetal bovine serum (10% FBS, manufactured by SAFC Biosciences)], the tube was subjected to centrifugation (500×g, 5 minutes, 20° C.). After the centrifugation, a supernatant was removed, and the cells were suspended in 10 mL of the complete medium and then counted. After cell counting, the cell suspension was adjusted with the complete medium to 78.5×10^4 cells/mL. To a 100 mm dish for cell culture (manufactured by IWAKI) were added 1 mL of the cell suspension and 14.7 mL of the complete medium. The cell culture was carried out in a CO2 incubator (37° C., 95% of humidity, 5% CO2). […]
In general terms: In flow cytometry, cells or beads pass a laser one at a time.

Experiment [2] relates to retrovirus vector. The experiment can be described thus: RNA copy number in retrovirus supernatant (Retrovirus Titer Set, real time PCR). The note with it: Example 9; FIG. 9. How it is done: as §1, with “CO2). The cell was subcultured at intervals of 3 days.” for “CO2).”
The RNA copy number was determined using Retrovirus Titer Set (for Real Time PCR) (manufactured by TAKARA BIO INC.) according to a standard method described in the directions for use attached to the product.
The retrovirus producer cell as described in Example 7-1 was used to prepare virus supernatants. […] However, virus supernatants collected over 3 days were mixed and evaluated in this Example, whereas virus supernatants were collected over 4 days in Example 2-1.
On the technique in general: Real-time PCR tracks product formation cycle by cycle.

On to `CC(/C=C/C(=O)NO)=C\[C@@H](C)C(=O)c1ccc(N(C)C)cc1` [TSA, trichostatin A], for which the “gene transduction efficiency, TSA 500 nM compared with 50 nM” value in experiment [1] is reported as “more effective”. In experiment [2], the “RNA copy number, TSA 500 nM compared with 50 nM” value is reported as “more effective”.
